The source of these data is BindingDB's records for doi:10.1016/j.ejmech.2016.03.038 (Glaxosmithkline, 2016).

Assay [1] is described as follows: Inhibition of pseudotype HIV1 integrase strand transfer activity assessed as reduction in viral replication in HIV1 infected human CIP4 cells after 2 days by luciferase reporter gene assay. In general terms: In a reporter assay the amount or activity of a reporter protein is the signal.
Assay [2] in a line: Inhibition of pseudotype HIV1 integrase strand transfer activity assessed as reduction in viral replication in HIV1 infected human CIP4 cells after 2 days in presence of 40% human serum albumin by luciferase reporter gene assay.

One may read the IC50 as the point on the concentration scale where inhibition reaches its midpoint.

Regarding `NC(=O)c1c2c(c(O)c3ncc(Cc4cccc(Cl)c4F)cc13)C(=O)N1CCCC[C@@H]21`, the half-inhibitory concentration (IC50) in assay [1] amounted to 0.6 nM; in assay [2], 2 nM.

Take `N#Cc1c2c(c(O)c3ncc(Cc4cccc(Cl)c4F)cc13)C(=O)N1CCC[C@@H]1C2`: the results for the IC50 in assay [1] and in assay [2] were 7 nM and 4540 nM, respectively.

Consider `N#Cc1c2c(c(O)c3ncc(Cc4cccc(Cl)c4F)cc13)C(=O)N1CCC[C@@H]21`, for which the IC50 in assay [1] amounted to 10 nM; in assay [2], 3320 nM.

Regarding `N#Cc1c2c(c(O)c3ncc(Cc4cccc(Cl)c4F)cc13)C(=O)N1CCC[C@H]21`, the 50% inhibitory concentration (IC50) was 5 nM in assay [1] and 294 nM in assay [2].

In the case of `NC(=O)c1c2c(c(O)c3ncc(Cc4cccc(Cl)c4F)cc13)C(=O)N1CCC[C@H]1C2`, the results for the concentration for half-maximal inhibition (IC50) in assay [1] and in assay [2] were 3 nM and 15 nM, respectively.

Take `O=C(NCc1ccc(F)cc1)c1cn2c(c(O)c1=O)C(=O)N1CCCO[C@H]1C2`: the IC50 in assay [1] was found to be 2 nM.

For the compound `N#Cc1c2c(c(O)c3ncc(Cc4cccc(Cl)c4F)cc13)C(=O)N1CCCC[C@@H]21`, the half-inhibitory concentration (IC50) in assay [1] is 18 nM; in assay [2] it was 1280 nM.

Take `N#Cc1c2c(c(O)c3ncc(Cc4cccc(Cl)c4F)cc13)C(=O)N1CCCC[C@H]21`: the values for the IC50 in assay [1] and in assay [2] were 15 nM and 457 nM, respectively.

With `NC(=O)c1c2c(c(O)c3ncc(Cc4cccc(Cl)c4F)cc13)C(=O)N1CCC[C@@H]1C2`, the figures for the IC50 in assay [1] and in assay [2] were 8 nM and 30 nM, respectively.

`NC(=O)c1c2c(c(O)c3ncc(Cc4cccc(Cl)c4F)cc13)C(=O)N1CCCC[C@H]21`: the results for the IC50 in assay [1] and in assay [2] were 0.7 nM and 1 nM, respectively.

Take `N#Cc1c2c(c(O)c3ncc(Cc4cccc(Cl)c4F)cc13)C(=O)N1CCCN1C2`: the values for the IC50 in assay [1] and in assay [2] were 2.2 nM and 415 nM, respectively.

`N#Cc1c2c(c(O)c3ncc(Cc4cccc(Cl)c4F)cc13)C(=O)N1CCC[C@H]1C2`: the results for the IC50 in assay [1] and in assay [2] were 14 nM and 66 nM, respectively.

Consider `Cn1c(=O)c(C(=O)NCCO)c(O)c2ncc(Cc3ccc(F)cc3)cc21` [GSK364735], for which, in assay [1], the IC50 was determined as 3 nM.

For the compound `O=C1c2c(cc3cc(Cc4cccc(Cl)c4F)cnc3c2O)CN2CCCN12`, the IC50 is 16 nM in assay [1] and 136 nM in assay [2].
